Data on five molecules can be found in patent US10029996B2, “Class of cyano-substituted asymmetric cyanine dyes, synthesizing method and application thereof” (DALIAN UNIVERSITY OF TECHNOLOGY, priority 2013, dated 2018).

One series deals with living cells. Put plainly: MTT cytotoxicity assay in living cells. The format is cell-based. The note with it: 6 h, serial concentrations 0, 1, 3, 5 μM. Here is the method:
The Compounds C, D, E and reference compound M1 at serial concentrations (0, 1, 3, and 5 μM) were added to cells counted in a confocal microscope dish for 6 h. Then MTT tetrazolium solution (100 μL of 0.5 mg/ml in PBS) was added to each well, and the cells further incubated for 2 h. Excess MTT tetrazolium solution was then carefully removed and the colored formazan was dissolved in dimethyl sulfoxide (DMSO). The absorbance was measured at 490 nm using a microplate reader to measure the toxicity of compound.
For orientation: Tetrazolium assays rely on reduction of a dye to a coloured formazan, in cell work by metabolically active cells.

The subject of series [1] is CT DNA. Nature of the series: Absorption and fluorescence emission spectra in the absence and presence of DNA in buffer. To be noted: 2 μM in Tris-HCl buffer, absence and presence of saturated CT DNA; for maximum emission wavelength: excitation 550 nm. The series is classed as physicochemical. Here is the method: 2 μM solutions of compounds C, D, and E in Tris-HCl (10 mM, pH=7.4, same below) buffer were be added into the cuvettes and determined its absorption respectively. The exited wavelength of the fluorescence spectra was 550 nm for all compounds. A saturated amount of CT DNA was added into the above solution, then the solution was determined its absorption respectively. The exited wavelength of the fluorescence spectra was 550 nm for all compounds. The equipments used are a UV-Vis spectrophotometer (Hp8453) and a spectrofluorophotometer (PTI-700). FIGS. 2, 3, and 4 are the absorption and fluorescence emission spectra of compounds C, D, and E in the absence and presence of DNA respectively in buffer solution respectively. […] Therefore, in confocal fluorescence image tests of compounds, the exited wavelength is selected 559 nm and the collected emission wavelength was 575-625 nm.

A short description of series [2]: Photofading under iodine-tungsten lamp irradiation in Tris-HCl buffer. The series is classed as physicochemical. The note with it: 5×10^−6 M in Tris-HCl 10 mM pH 7.4; 500 W iodine-tungsten lamp, 20 cm; after 6 h of radiation. Here is the method: 5×10^−6M solutions of compounds C, D, E and reference compound M1 in Tris-HCl (10 mM, pH=7.4, same below) buffer were be sealed into the cuvettes respectively. To absorb short wavelength light (<400 nm), a trap of glass containing 50 g/L NaNO2 was set up between the cells and the lamp. In the other hand, NaNO2 solution can be used as a cold trap to keep the sample at room temperature. After the absorption of samples were monitored, solutions of the samples were irradiated with a 500 W iodine-tungsten lamp. The distance between the cells and the lamp was 20 cm. The irreversible bleaching of the dyes at the absorption peak was monitored as a function of time at 1 hour intervals. The equipment used is a UV-Vis spectrophotometer Lambda 8453.

Series [3] concerns CT DNA. Put plainly: Fluorescence quantum yield in the presence of DNA. The note with it: 1 μM in Tris-HCl buffer, saturated DNA; Rhodamine B as standard; mean of triplicate. The series is classed as physicochemical. Here is the method:
A saturated amount of CT DNA was added into the 1 μM compound C solution in Tris-HCl buffer to keep a maximum absorbance less than 0.1 as determined by a UV-Vis Spectrophotometer. Fluorescence intensities are measured at selected excitation wavelengths of 545 nm, 550 nm and 555 nm, respectively. For each compound, the determination is made in triplicate, the fluorescence quantum yield of each determination is calculated, and the mean value is taken. Using Rhodamine B as the standard (ΦF=0.97, methanol, 15° C.), the calculated fluorescence quantum yields in buffer solution of compound C in the presence of DNA is 0.73. The equipments used are a UV-Vis spectrophotometer (Hp8453) and a spectrofluorophotometer (PTI-700).
A saturated amount of DNA was added into the 1 μM reference compound M1 solution in Tris-HCl buffer to keep a maximum absorbance less than 0.1 as determined by a UV-Vis Spectrophotometer. Fluorescence intensities are measured at selected excitation wavelengths of 585 nm, 590 nm and 595 nm, respectively. For each compound, the determination is made in triplicate, the fluorescence quantum yield of each determination is calculated, and the mean value is taken. Using Rhodamine B as the standard (ΦF=0.97, methanol, 15° C.), the calculated fluorescence quantum yields in buffer solution of reference compound M1 in the presence of DNA is 0.16. […]

The subject of series [4] is MCF7 cells. Put plainly: Fluorescence imaging of live cells stained with dye. The series is classed as cell-based, human. To be noted: 45 min, compound D 2 μM, M1 3 μM, confocal microscopy. On the procedure: MCF7 cells (human breast adenocarcinoma cell line) were cultured in DEME medium supplemented with 10% fetal bovine serum at 37° C. in an atmosphere containing 5% CO2 for 24 h. For live cell imaging, compound D (2 μM) or reference compound M1 (3 μM) was added to cells for 45 min and washed with PBS (phosphate-buffered saline) three times. After replacement of the medium, cells were imaged using a confocal fluorescence microscope. […] The confocal laser scanning microscope is Olympus FV1000.

In series [5] the test system is MCF7 cells. Nature of the series: Colocalization fluorescence imaging with commercial nucleic acid stain SYTO9. The format is cell-based, human. To be noted: compound E 2.0 μM 45 min after SYTO9 3.0 μM 45 min; λex=559 nm, λem=575-625 nm. Here is the method: The cells were cultured as shown example 10, were first cultured with 3.0 μM of available commercial nucleic acid stain SYTO9 for 45 min, and then washed with PBS three times. Cells were then incubated with compound E (2.0 μM) for 45 min, and then washed with PBS three times. After replacement of DEME medium, cells were imaged using confocal fluorescence microscope.
FIG. 6a is the fluorescence image of SYTO 9 (λex=488 nm, λem=500 nm to 550 nm) and FIG. 6b is the fluorescence image of compound E (λex=559 nm, λem=575 nm to 625 nm). […] The equipment used is an Olympus FV1000 confocal laser scanning microscope.

In series [6] the test system is CT DNA. To be noted: methanol, 15° C.; cited from earlier work.

`CC[n+]1ccc(/C=C/C(C#N)=C2/Sc3ccccc3N2C)c2ccccc21.[I-]` [Compound C]: in the series with living cells, the “cytotoxicity in high concentration relative to M1” value is “less cytotoxic than reference compound M1” and the “cytotoxicity in low concentrations” value is “low cytotoxicity”. Besides, in the series on CT DNA [1], the maximum absorption wavelength entry was “about 545 nm” and the maximum emission wavelength entry is reported as “about 610 nm”. In addition, in series [2], the “optical density remaining after radiation (photostability)” value (“optical density remaining” for short) is listed as 90%. For the same molecule, the “fluorescence quantum yield in the presence of DNA” value in the series with CT DNA [3] was 0.73.
As to `CN1/C(=C(C#N)\C=C\c2cc[n+](CCO)c3ccccc23)Sc2cc(Cl)ccc21.Cl` [Compound D], in the series with living cells, the “cytotoxicity in high concentration relative to M1” value is “less cytotoxic than reference compound M1” and the “cytotoxicity in low concentrations” value is “low cytotoxicity”. Also, the “staining pattern in live cells” value in the series on MCF7 cells [4] is “clear nucleolar staining as well as faint nucleus staining”. Also, in the series with CT DNA [1], the maximum absorption wavelength result is given as “about 545 nm” and the maximum emission wavelength entry is reported as “about 610 nm”. In series [2], the “optical density remaining” value is 90%.
For the molecule `C=CCCN1/C(=C(C#N)\C=C\c2cc[n+](CC)c3cc(OC)ccc23)Sc2ccccc21.[I-]` [Compound E], in the series on CT DNA [1], the maximum absorption wavelength entry is listed as “about 545 nm” and the maximum emission wavelength entry is on record as “about 610 nm”. In addition, the “optical density remaining” value in series [2] stood at 90%. Further, the “subcellular regions stained (colocalization with SYTO9)” value in the series on MCF7 cells [5] was “nucleus and nucleolus”.
`CC[n+]1ccc(/C=C/C=C2/Sc3ccccc3N2C)c2ccccc21.[I-]` [Compound M1, reference compound]: the “cytotoxicity in low concentrations” value in the series with living cells was “low cytotoxicity”. The “staining pattern in live cells” value in the series on MCF7 cells [4] was “clear nucleolar staining as well as faint nucleus staining”. Moreover, the “optical density remaining” value in series [2] was ~0%. Besides, the “fluorescence quantum yield in the presence of DNA” value in the series on CT DNA [3] was found to be 0.16.
Turning to `CCN(CC)c1ccc2c(-c3ccccc3C(=O)O)c3ccc(=[N+](CC)CC)cc-3oc2c1.[Cl-]` [Rhodamine B], in the series on CT DNA [6], the “fluorescence quantum yield of standard (ΦF)” value is on record as 0.97.
